Data published in patent publication US20060088886A1, “Topiramate analogs” (priority 2004, published 2006).

Tests used:
[1] = test system: anti-topiramate antibodies prepared with immunogen (17); assay: ELISA binding inhibition study (avidity), free topiramate vs coated antigens; parameters: species or system Rabbit; settings: for Abs Antigen 16 / Abs Antigen 19 / Abs Antigen 20: 405 nm
Experimental: ELISA plates for use in an ELISA assay are prepared in order to study the polyclonal antibody prepared as described in Example 21. As such, various topiramate antigens (16), (19), and (20) are coated on different ELISA plates before being subjected to the anti-topiramate antibody and competing free topiramate. More particularly, the topiramate antigens are diluted in coating buffer, and then added to the wells of ELISA plate. After the ELISA plate is inculcated for 60 min at 37° C., the solvent in the coating buffer is decanted and a blocking buffer is added to the plate. The plate is incubated again for 60 min at 37° C., and the solvent in the blocking buffer is decanted from the plate. The ELISA plate is then stored with the blocking agent in the wells at 2-8° C. for up to 1 week. The avidity of the anti-topiramate antibodies prepared with immunogen (17) for topirainate analogs are determined by a binding inhibition study. As such, samples are prepared in 1 mL of PBS at pH 7.4 with 0.1% BSA. A composition having 30% Bmax titer or 50% Bmax titer is used to divide the obtained titer value into approximately half the titer value. Using 30% Bmax, an antibody titer of 1:10000 is diluted to 1:5000 during the sample preparation stage. About 50 μL of topiramate at different concentrations or calibrator values, (0, 2, 4, 8, 16, 32 μg/ml) are then applied to a plate as prepared in accordance with Example 22. About 50 μL of the diluted antibody is dispensed into the plate, and the compositions in the plate are mixed for 1 min on a horizontal plate shaker. The plate is characterized by a first row not containing topiramate or anti-topiramate antibody, wherein the first row is used as a negative control. A second row not containing topiramate is used as the positive control. The plate is incubated for 60 min, and washed three times with 250 μL of PBS at pH 7.4 with 0.05% tween. About 125 μL of a diluted second antibody conjugate such as antigens (16), (19), or (20), in PBS at pH 7.4 is added to each well of the plate. Titer is determined experimentally by the plate being incubated for 60 min at 37° C. and washed 3 times with 250 μL PBS, pH 7.4 with 0.05% tween. Subsequently, about 125 μL of ABTS substrate is added to each well of the plate and incubated for 20 min.

[2] = test system: sheep polyclonal antibodies that bind with topiramate prepared from immunogen (18); assay: QMS homogeneous particle-enhanced immunoturbidimetric assay; type: binding; settings: Polyclonal antibody R1, Topiramate antigen (19) coated Latex
Experimental: An immunoturbidimetric or QMS® assay, which is a homogeneous particle-enhanced immunoturbidimetric experiment, is performed to test the polyclonal antibodies prepared as in Example 21. […] Additionally, suitable specimens can be prepared from serum and plasma. Serum can be collected by standard venipuncture techniques and placed into glass or plastic tubes with or without gel barriers. […] In the instance the specimen is centrifuged before a complete clot forms, the presence of fibrin may cause erroneous results. Accordingly, the serum can be separated from red blood cells as soon after collection as possible. Plasma can also be used with acceptable anticoagulants, such as lithium heparin, sodium heparin, potassium EDTA, and a heparin gel plasma separator. The plasma can be collected by standard venipuncture techniques and placed into glass or plastic tubes. Also, centrifugation is used to ensure the adequate removal of platelets. The plasma can be separated from red blood cells as soon as possible after collection. The specimens that contain particulate matter or red blood cells may give inconsistent results, but can be centrifuged before testing at a recommended 8,000 to 10,000 RCF×10 minutes to produce a suitable specimen. The assay procedure is initiated by diluting the specimen because the specimens with topiramate can be used to generate results that exceed the highest calibrator value. As such, the specimens may be diluted manually or by using an automated onboard dilution protocol. The assay is based on competition for topiramate-specific antibody binding sites between drug in the sample and drug coated onto a microparticle of topiramate-coated microparticle reagent is rapidly agglutinated in the presence of the anti-topiramate antibody reagent and in the absence of any competing drug in the sample. The rate of absorbance change is measured photometrically, and is directly proportional to the rate of agglutination of the particles. […] A concentration-dependent classic agglutination inhibition curve can be obtained, with maximum rate of agglutination at the lowest topiramate concentration (at zero μg/ml) and the lowest agglutination rate at the highest topiramate concentration (32 μg/ml). The QMS® topiramate assay is initiated after the being calibrated using a full calibration (6-point) procedure. The QMS® is performed as directed in operation manuals in accordance with the average skill of one in the art.

[3] = Rabbit No. 5481, topiramate 2 μg/ml
[4] = Rabbit No. 5481, topiramate 4 μg/ml
[5] = Rabbit No. 5481, topiramate 8 μg/ml
[6] = Rabbit No. 5481, topiramate 16 μg/ml
[7] = Rabbit No. 5481, topiramate 32 μg/ml
[8] = Rabbit No. 5492, topiramate 2 μg/ml
[9] = Rabbit No. 5492, topiramate 4 μg/ml
[10] = Rabbit No. 5492, topiramate 8 μg/ml
[11] = Rabbit No. 5492, topiramate 16 μg/ml
[12] = Rabbit No. 5492, topiramate 32 μg/ml

**Q.** What does the source list for CC1(C)O[C@@H]2[C@@H](CO[C@@]3(COS(N)(=O)=O)OC(C)(C)O[C@@H]23)O1 [Topiramate, 2,3:4,5-di-O-isopropylidene-beta-D-fructopyranose sulfamate]?
**A.** B/Bo Antigen 16 [1, 3]: 0.38; B/Bo Antigen 19 [1, 3]: 0.40; B/Bo Antigen 20 [1, 3]: 0.53; Abs Antigen 16 [1, 3]: 0.29; Abs Antigen 19 [1, 3]: 0.33; Abs Antigen 20 [1, 3]: 0.32; B/Bo Antigen 16 [1, 4]: 0.34; B/Bo Antigen 19 [1, 4]: 0.30; B/Bo Antigen 20 [1, 4]: 0.50; Abs Antigen 16 [1, 4]: 0.26; Abs Antigen 19 [1, 4]: 0.25; Abs Antigen 20 [1, 4]: 0.30; B/Bo Antigen 16 [1, 5]: 0.24; B/Bo Antigen 19 [1, 5]: 0.24; B/Bo Antigen 20 [1, 5]: 0.42; Abs Antigen 16 [1, 5]: 0.18; Abs Antigen 19 [1, 5]: 0.20; Abs Antigen 20 [1, 5]: 0.25; B/Bo Antigen 16 [1, 6]: 0.20; B/Bo Antigen 19 [1, 6]: 0.22; B/Bo Antigen 20 [1, 6]: 0.37; Abs Antigen 16 [1, 6]: 0.15; Abs Antigen 19 [1, 6]: 0.18; Abs Antigen 20 [1, 6]: 0.22; B/Bo Antigen 16 [1, 7]: 0.14; B/Bo Antigen 19 [1, 7]: 0.18; B/Bo Antigen 20 [1, 7]: 0.30; Abs Antigen 16 [1, 7]: 0.11; Abs Antigen 19 [1, 7]: 0.15; Abs Antigen 20 [1, 7]: 0.18; B/Bo Antigen 16 [1, 8]: 0.56; B/Bo Antigen 19 [1, 8]: 0.38; B/Bo Antigen 20 [1, 8]: 0.64; Abs Antigen 16 [1, 8]: 0.25; Abs Antigen 19 [1, 8]: 0.31; Abs Antigen 20 [1, 8]: 0.45; B/Bo Antigen 16 [1, 9]: 0.44; B/Bo Antigen 19 [1, 9]: 0.28; B/Bo Antigen 20 [1, 9]: 0.59; Abs Antigen 16 [1, 9]: 0.20; Abs Antigen 19 [1, 9]: 0.23; Abs Antigen 20 [1, 9]: 0.41; B/Bo Antigen 16 [1, 10]: 0.33; B/Bo Antigen 19 [1, 10]: 0.23; B/Bo Antigen 20 [1, 10]: 0.54; Abs Antigen 16 [1, 10]: 0.15; Abs Antigen 19 [1, 10]: 0.19; Abs Antigen 20 [1, 10]: 0.38; B/Bo Antigen 16 [1, 11]: 0.29; B/Bo Antigen 19 [1, 11]: 0.20; B/Bo Antigen 20 [1, 11]: 0.54; Abs Antigen 16 [1, 11]: 0.13; Abs Antigen 19 [1, 11]: 0.17; Abs Antigen 20 [1, 11]: 0.38; B/Bo Antigen 16 [1, 12]: 0.02; B/Bo Antigen 19 [1, 12]: 0.18; B/Bo Antigen 20 [1, 12]: 0.40; Abs Antigen 16 [1, 12]: 0.01; Abs Antigen 19 [1, 12]: 0.15; Abs Antigen 20 [1, 12]: 0.28; Rate (Delta Absorbance) ([2]; topiramate 2 μg/ml sample): 159; Rate (Delta Absorbance) ([2]; topiramate 4 μg/ml sample): 122; Rate (Delta Absorbance) ([2]; topiramate 8 μg/ml sample): 60; Rate (Delta Absorbance) ([2]; topiramate 16 μg/ml sample): 16; Rate (Delta Absorbance) ([2]; topiramate 32 μg/ml sample): 4
